From US20050060764A1, “Mouse model for bone metabolism” (priority 2003, published 2005) come the findings set out here.

Strand notation (5' to 3'): a small letter for the sugar, then the base; units joined by * are phosphorothioate-linked, units joined directly phosphodiester-linked; [ ] holds rarer units or linkages, { } end groups; capitals alone tell only the bases. e = 2'-O-(2-methoxyethyl) (MOE); [5mC] = 5-methylcytosine; d = 2'-deoxy (DNA)

This data set concerns rat RANKL mRNA. The data set can be described thus: Antisense inhibition of rat RANKL mRNA levels in UMR-106 cells, quantitative real-time PCR (Table 3). Format: cell-based. The arrangement: concentration or dose not given beside the values. The settings on record: averages from three experiments. On the procedure:
Cells were seeded onto 24-well plates (Falcon-353047) at a density of […] for use in antisense oligonucleotide transfection.
Cells are treated and data are obtained in triplicate. […] Cells were harvested 16-24 hours after oligonucleotide treatment.
PCR reagents were obtained from Invitrogen Corporation, (Carlsbad, Calif.).
Probes and primers to rat RANKL were designed to hybridize to a rat RANKL sequence, using published sequence information (GenBank accession number NM_057149.1, incorporated herein as SEQ ID NO:18). For rat RANKL the PCR primers were: • forward primer: […] (SEQ ID NO:19) • reverse primer: […] (SEQ ID NO: 20) and the • PCR probe was: FAM-[…]-TAMRA (SEQ ID NO: 21) where FAM is the fluorescent reporter dye and TAMRA is the quencher dye. For rat GAPDH the PCR primers were: • forward primer: […](SEQ ID NO:22) • reverse primer: […](SEQ ID NO:23) and the • PCR probe was: 5′ JOE-[…]-TAMRA 3′ (SEQ ID NO: 24) where JOE is the fluorescent reporter dye and TAMRA is the quencher dye.
In accordance with the present invention, a second series of antisense compounds was designed to target different regions of the rat RANKL RNA, using published sequences (GenBank accession number NM_057149.1, incorporated herein as SEQ ID NO: 18, and GenBank accession number AF425669.1, incorporated herein as SEQ ID NO: 200). […] All cytidine residues are 5-methylcytidines. […] If present, “N.D.” indicates “no data”.
Turning to “286636 (antisense eT*eG*eG*eA*eA*dT*dA*dA*dA*dA*dG*dT*dG*dG*dA*eA*eT*eT*e[5mC]*eA) [compound 286636]”, the “% INHIB (inhibition of rat RANKL mRNA levels)” value (from here on “% INHIB”) stood at 21%. As for “286600 (antisense eT*eT*e[5mC]*eT*eG*dT*dA*dG*dA*dA*dG*d[5mC]*dA*dG*d[5mC]*eG*e[5mC]*eG*eT*eG) [compound 286600]”, the “% INHIB” value is recorded as 13%. To “286586 (antisense eG*eG*eT*eA*e[5mC]*dT*dT*dG*d[5mC]*d[5mC]*dG*dT*dA*dG*dT*e[5mC]*eT*e[5mC]*eG*eG) [compound 286586]” belongs 63%; to “286620 (antisense eA*eT*e[5mC]*eT*eT*dG*dG*dT*dT*dA*dA*d[5mC]*d[5mC]*d[5mC]*dT*eT*eA*eG*eT*eT) [compound 286620]”, 48%. Consider “gcaaatgttggcgtacaggt (eG*e[5mC]*eA*eA*eA*dT*dG*dT*dT*dG*dG*d[5mC]*dG*dT*dA*e[5mC]*eA*eG*eG*eT; antisense) [ISIS 286627, 2′-MOE gapmer targeted to rat RANKL]”, for which the “% INHIB” value is given as “at least 40%”. To “286623 (antisense eT*eA*eA*eT*eA*dG*dA*dA*dG*d[5mC]*d[5mC]*dA*dT*d[5mC]*dT*eT*eG*eG*eT*eT) [compound 286623]” belongs 16%; to “286649 (antisense eT*eA*eG*eA*e[5mC]*d[5mC]*d[5mC]*dA*dG*dA*dG*dA*d[5mC]*dT*dA*eT*eG*eT*eA*eT) [compound 286649]”, 25%; to “gtcttacacatgtatctaca (eG*eT*e[5mC]*eT*eT*dA*d[5mC]*dA*d[5mC]*dA*dT*dG*dT*dA*dT*e[5mC]*eT*eA*e[5mC]*eA; antisense) [ISIS 286644, 2′-MOE gapmer targeted to rat RANKL]”, “at least 40%”.

“286657 (e[5mC]*e[5mC]*eA*eG*eT*dT*dA*dA*dA*dT*dA*d[5mC]*dA*dT*d[5mC]*eT*eT*eG*eA*e[5mC]; antisense) [compound 286657]”: the “% INHIB” value is 10%. To “286589 (antisense eA*e[5mC]*eA*eG*eA*dG*d[5mC]*dG*dA*dT*dG*d[5mC]*dT*dG*d[5mC]*eA*eG*eA*e[5mC]*e[5mC]) [compound 286589]” belongs 49%; to “286602 (antisense eA*eA*e[5mC]*e[5mC]*eT*dG*dT*dA*dT*dT*dT*dT*d[5mC]*dA*d[5mC]*eG*eG*eA*eG*eT) [compound 286602]”, 48%; to “286631 (antisense eA*eT*eG*e[5mC]*eT*dG*dG*dT*dT*dT*dT*dA*dA*d[5mC]*dG*eA*e[5mC]*eA*eT*eA) [compound 286631]”, 35%. In the case of “286641 (antisense e[5mC]*eT*eT*eT*eG*dA*dA*dA*dG*d[5mC]*d[5mC]*d[5mC]*d[5mC]*dA*dA*eA*eG*eT*eA*e[5mC]) [compound 286641]”, the “% INHIB” value is listed as 49%. To “286653 (eA*eA*eA*e[5mC]*e[5mC]*dA*dT*d[5mC]*dA*dT*dT*dT*d[5mC]*dT*d[5mC]*eT*eG*e[5mC]*eA*eA; antisense) [compound 286653]” belongs 58%; to “286654 (eA*e[5mC]*eT*eT*eA*dT*dT*dT*dG*d[5mC]*dA*dG*dG*dT*dT*e[5mC]*e[5mC]*eA*eG*e[5mC]; antisense) [compound 286654]”, 55%.

Consider “aaagccccaaagtacgtcgc (eA*eA*eA*eG*e[5mC]*d[5mC]*d[5mC]*d[5mC]*dA*dA*dA*dG*dT*dA*d[5mC]*eG*eT*e[5mC]*eG*e[5mC]; antisense) [ISIS 286640, 2′-MOE gapmer targeted to rat RANKL]”, for which the “% INHIB” value is reported as “at least 40%”. “cttgggattttgatgctggt (e[5mC]*eT*eT*eG*eG*dG*dA*dT*dT*dT*dT*dG*dA*dT*dG*e[5mC]*eT*eG*eG*eT; antisense) [ISIS 286632, 2′-MOE gapmer targeted to rat RANKL]”: the “% INHIB” value is listed as “at least 40%”.

Consider “286597 (antisense eG*eA*eT*eA*eT*dT*d[5mC]*dT*dG*dT*dT*dA*dG*dG*dA*eT*e[5mC]*e[5mC]*eA*eT) [compound 286597]”, for which the “% INHIB” value came to 57%. The figure for “286642 (antisense eT*e[5mC]*eA*eG*eT*d[5mC]*dT*dA*dT*dG*dT*d[5mC]*dT*dT*dG*eA*eA*e[5mC]*eT*eT) [compound 286642]” is 41%; for “286591 (antisense eA*eA*eG*eT*eA*d[5mC]*dA*dG*dG*dA*dA*d[5mC]*dA*dG*dA*eG*e[5mC]*eG*eA*eT) [compound 286591]” it is 17%. To “tagagatcttggcccagcct (eT*eA*eG*eA*eG*dA*dT*d[5mC]*dT*dT*dG*dG*d[5mC]*d[5mC]*d[5mC]*eA*eG*e[5mC]*e[5mC]*eT; antisense) [ISIS 286615, 2′-MOE gapmer targeted to rat RANKL]” belongs “at least 40%”; to “atcttggttaacccttagtt (eA*eT*e[5mC]*eT*eT*dG*dG*dT*dT*dA*dA*d[5mC]*d[5mC]*d[5mC]*dT*eT*eA*eG*eT*eT; antisense) [ISIS 286620, 2′-MOE gapmer targeted to rat RANKL]”, “at least 40%”; to “286624 (antisense e[5mC]*eA*eG*eG*eT*dA*dA*dT*dA*dG*dA*dA*dG*d[5mC]*d[5mC]*eA*eT*e[5mC]*eT*eT) [compound 286624]”, 22%. In the case of “acccttagttttccgttgct (eA*e[5mC]*e[5mC]*e[5mC]*eT*dT*dA*dG*dT*dT*dT*dT*d[5mC]*d[5mC]*dG*eT*eT*eG*e[5mC]*eT; antisense) [ISIS 286618, 2′-MOE gapmer targeted to rat RANKL]”, the “% INHIB” value is “at least 40%”. For “aggttctcagtggcacaggc (eA*eG*eG*eT*eT*d[5mC]*dT*d[5mC]*dA*dG*dT*dG*dG*d[5mC]*dA*e[5mC]*eA*eG*eG*e[5mC]; antisense) [ISIS 286651, 2′-MOE gapmer targeted to rat RANKL]”, the “% INHIB” value is “at least 40%”. The entry for “gtggcacaggcccaggagtt (eG*eT*eG*eG*e[5mC]*dA*d[5mC]*dA*dG*dG*d[5mC]*d[5mC]*d[5mC]*dA*dG*eG*eA*eG*eT*eT; antisense) [ISIS 286650, 2′-MOE gapmer targeted to rat RANKL]” is “at least 40%”; for “286656 (eT*eT*eT*eT*eG*d[5mC]*dA*d[5mC]*dA*dG*dA*dA*dA*dA*d[5mC]*e[5mC]*eT*eT*eA*e[5mC]; antisense) [compound 286656]” it is 12%. Take “286617 (antisense eA*eG*eT*eT*eT*dT*d[5mC]*d[5mC]*dG*dT*dT*dG*d[5mC]*dT*dT*eA*eA*e[5mC]*eG*eT) [compound 286617]”: the “% INHIB” value was 52%.

Take “cttagtagtcttacacatgt (e[5mC]*eT*eT*eA*eG*dT*dA*dG*dT*d[5mC]*dT*dT*dA*d[5mC]*dA*e[5mC]*eA*eT*eG*eT; antisense) [ISIS 286645, 2′-MOE gapmer targeted to rat RANKL]”: the “% INHIB” value is listed as “at least 40%”. “286619 (antisense eG*eG*eT*eT*eA*dA*d[5mC]*d[5mC]*d[5mC]*dT*dT*dA*dG*dT*dT*eT*eT*e[5mC]*e[5mC]*eG) [compound 286619]”: the “% INHIB” value amounted to 61%. In the case of “ccattgtgtgatcaccatga (e[5mC]*e[5mC]*eA*eT*eT*dG*dT*dG*dT*dG*dA*dT*d[5mC]*dA*d[5mC]*e[5mC]*eA*eT*eG*eA; antisense) [ISIS 286648, 2′-MOE gapmer targeted to rat RANKL]”, the “% INHIB” value is “at least 40%”.

Take “286652 (e[5mC]*eT*e[5mC]*eT*eG*d[5mC]*dA*dA*dT*dG*dT*dA*dA*d[5mC]*dG*eG*eT*eA*e[5mC]*e[5mC]; antisense) [compound 286652]”: the “% INHIB” value came out at 53%. Turning to “286614 (antisense eA*eT*e[5mC]*eT*eT*dG*dG*d[5mC]*d[5mC]*d[5mC]*dA*dG*d[5mC]*d[5mC]*dT*e[5mC]*eG*eA*eT*e[5mC]) [compound 286614]”, the “% INHIB” value turned out to be 41%. For the substance “286587 (antisense eG*e[5mC]*eG*e[5mC]*eA*dG*dG*dT*dA*d[5mC]*dT*dT*dG*d[5mC]*d[5mC]*eG*eT*eA*eG*eT) [compound 286587]”, the “% INHIB” value came out at 50%.

For the substance “286618 (antisense eA*e[5mC]*e[5mC]*e[5mC]*eT*dT*dA*dG*dT*dT*dT*dT*d[5mC]*d[5mC]*dG*eT*eT*eG*e[5mC]*eT) [compound 286618]”, the “% INHIB” value came to 57%. With “tgttggcgtacaggtaatag (eT*eG*eT*eT*eG*dG*d[5mC]*dG*dT*dA*d[5mC]*dA*dG*dG*dT*eA*eA*eT*eA*eG; antisense) [ISIS 286626, 2′-MOE gapmer targeted to rat RANKL]”, the “% INHIB” value is recorded as “at least 40%”.
